Data published in patent US20260285850A1, “SUBSTITUTED OXAZOLIDINONES AND IMIDAZOLINONES AS HERBICIDES” (FMC CORPORATION, priority 2023, published 2026).

Columns and labels:
Assay type in all cases: in vivo
[1] = test system: sedge, umbrella (small-flower umbrella sedge, Cyperus difformis); assay: Test B flooded paddy test, visual plant response rating 0-100; details: 250 g ai/ha, Flood, applied to paddy water, evaluated after 13 days
Procedure, shortened: (§1)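 Treatment occurs at the 2-leaf stage by adding compound to floodwater standing 3 cm above the soil, a level kept for the whole test. Plants stay in the greenhouse 13 days before visual comparison with controls.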

[2] = test system: barnyardgrass (Echinochloa crusgalli); assay: as above; details: 250 g ai/ha, Flood, applied to paddy water, evaluated after 13 days
Procedure, shortened: as §1

[3] = test system: ducksalad (Heteranthera limosa); assay: as above; details: 250 g ai/ha, Flood, applied to paddy water, evaluated after 13 days
Procedure, shortened: as §1

[4] = test system: rice (Oryza sativa); assay: as above; details: 250 g ai/ha, Flood, applied to paddy water, evaluated after 13 days
Procedure, shortened: as §1

[5] = test system: green foxtail (Setaria viridis); assay: Test A preemergence soil spray, visual injury rating 0-100; details: 10 days, 0 = no effect, 100 = complete control
Procedure, shortened: (§2)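 Preemergence directed soil spray or postemergence spray (2-10 cm, 1-2 leaf); loam/sand mix; compound in non-phytotoxic solvent + surfactant. Greenhouse, 10 d. Visual injury vs untreated, 0 = none, 100 = complete control.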

[6] = test system: kochia (Bassia scoparia); assay: as above; details: 10 days, 0 = no effect, 100 = complete control
Procedure, shortened: as §2

[7] = test system: ragweed (common ragweed, Ambrosia artemisiifolia); assay: as above; details: 10 days, 0 = no effect, 100 = complete control
Procedure, shortened: as §2

[8] = test system: corn (Zea mays); assay: as above; details: 10 days, 0 = no effect, 100 = complete control
Procedure, shortened: as §2

[9] = test system: oat, wild (wild oat, Avena fatua); assay: as above; details: 10 days, 0 = no effect, 100 = complete control
Procedure, shortened: as §2

[10] = test system: wheat (Triticum aestivum); assay: as above; details: 10 days, 0 = no effect, 100 = complete control
Procedure, shortened: as §2

[11] = test system: barnyardgrass (Echinochloa crus-galli); assay: as above; details: 10 days, 0 = no effect, 100 = complete control
Procedure, shortened: as §2

[12] = test system: blackgrass (Alopecurus myosuroides); assay: as above; details: 10 days, 0 = no effect, 100 = complete control
Procedure, shortened: as §2

[13] = test system: palmer (palmer amaranth, palmer pigweed, Amaranthus palmeri); assay: as above; details: 10 days, 0 = no effect, 100 = complete control
Procedure, shortened: as §2

[14] = test system: ryegrass, Italian (italian ryegrass, Lolium multiflorum); assay: as above; details: 10 days, 0 = no effect, 100 = complete control
Procedure, shortened: as §2

[15] = test system: soybean (Glycine max); assay: as above; details: 10 days, 0 = no effect, 100 = complete control
Procedure, shortened: as §2

[16] = test system: green foxtail (Setaria viridis); assay: Test A postemergence application, visual injury rating 0-100; details: 10 days
Procedure, shortened: as §2

[17] = test system: kochia (Bassia scoparia); assay: as above; details: 10 days
Procedure, shortened: as §2

[18] = test system: ragweed (common ragweed, Ambrosia artemisiifolia); assay: as above; details: 10 days
Procedure, shortened: as §2

[19] = test system: corn (Zea mays); assay: as above; details: 10 days
Procedure, shortened: as §2

[20] = test system: horseweed (Erigeron canadensis); assay: as above; details: 10 days
Procedure, shortened: as §2

[21] = test system: oat, wild (wild oat, Avena fatua); assay: as above; details: 10 days
Procedure, shortened: as §2

[22] = test system: wheat (Triticum aestivum); assay: as above; details: 10 days
Procedure, shortened: as §2

[23] = test system: barnyardgrass (Echinochloa crus-galli); assay: as above; details: 10 days
Procedure, shortened: as §2

[24] = test system: galium (catchweed bedstraw, Galium aparine); assay: as above; details: 10 days
Procedure, shortened: as §2

[25] = test system: blackgrass (Alopecurus myosuroides); assay: as above; details: 10 days
Procedure, shortened: as §2

[26] = test system: palmer (palmer amaranth, palmer pigweed, Amaranthus palmeri); assay: as above; details: 10 days
Procedure, shortened: as §2

[27] = test system: ryegrass, Italian (italian ryegrass, Lolium multiflorum); assay: as above; details: 10 days
Procedure, shortened: as §2

[28] = test system: soybean (Glycine max); assay: as above; details: 10 days
Procedure, shortened: as §2

[29] = 31 g ai/ha, postemergence, 0 = no effect, 100 = complete control
[30] = Postemergence, 125 g ai/ha, 0 is no effect, 100 is complete control

## CCOC(=O)COC(=O)C1C=CC(NC(=O)C2(C)CN(c3cc(F)cc(F)c3)C(=O)O2)C1 (stereo not shown) [Compound 53]
[1]
  Plant response rating, Sedge, Umbrella (0 to 100 scale, 0 is no effect and 100 is complete control): 60
[2]
  Plant response rating, Barnyardgrass (0 to 100 scale, 0 is no effect and 100 is complete control): 90
[3]
  Plant response rating, Ducksalad (0 to 100 scale, 0 is no effect and 100 is complete control): 90
[4]
  Plant response rating, Rice (0 to 100 scale, 0 is no effect and 100 is complete control): 20
[5]; 31 g ai/ha
  Foxtail, Green plant response rating (0-100): 0
[5]; 125 g ai/ha
  Foxtail, Green plant response rating (0 to 100 scale): 20
[6]; 31 g ai/ha
  Kochia plant response rating (0-100): 0
[6]; 125 g ai/ha
  Kochia plant response rating (0 to 100 scale): 90
[7]; 31 g ai/ha
  Ragweed plant response rating (0-100): 0
[7]; 125 g ai/ha
  Ragweed plant response rating (0 to 100 scale): 20
[8]; 31 g ai/ha
  Corn plant response rating (0-100): 0
[8]; 125 g ai/ha
  Corn plant response rating (0 to 100 scale): 60
[9]; 31 g ai/ha
  Oat, Wild plant response rating (0-100): 50
[9]; 125 g ai/ha
  Oat, Wild plant response rating (0 to 100 scale): 90
[10]; 31 g ai/ha
  Wheat plant response rating (0-100): 70
[10]; 125 g ai/ha
  Wheat plant response rating (0 to 100 scale): 90
[11]; 31 g ai/ha
  Barnyardgrass plant response rating (0-100): 30
[11]; 125 g ai/ha
  Barnyardgrass plant response rating (0 to 100 scale): 100
[12]; 31 g ai/ha
  Blackgrass plant response rating (0-100): 50
[12]; 125 g ai/ha
  Blackgrass plant response rating (0 to 100 scale): 90
[13]; 31 g ai/ha
  Amaranth, Palmer plant response rating (0-100): 30
[13]; 125 g ai/ha
  Amaranth, Palmer plant response rating (0 to 100 scale): 60
[14]; 31 g ai/ha
  Ryegrass, Italian plant response rating (0-100): 70
[14]; 125 g ai/ha
  Ryegrass, Italian plant response rating (0 to 100 scale): 100
[15]; 31 g ai/ha
  Soybean plant response rating (0-100): 30
[15]; 125 g ai/ha
  Soybean plant response rating (0 to 100 scale): 70
[16]; [29]
  Foxtail, Green plant response rating (0-100): 50
[16]; [30]
  Foxtail, Green plant response rating (0 to 100 scale): 70
[17]; [29]
  Kochia plant response rating (0-100): 80
[17]; [30]
  Kochia plant response rating (0 to 100 scale): 80
[18]; [29]
  Ragweed plant response rating (0-100): 50
[18]; [30]
  Ragweed plant response rating (0 to 100 scale): 80
[19]; [29]
  Corn plant response rating (0-100): 100
[19]; [30]
  Corn plant response rating (0 to 100 scale): 100
[20]; [29]
  Horseweed plant response rating (0-100): 60
[20]; [30]
  Horseweed plant response rating (0 to 100 scale): 70
[21]; [29]
  Oat, Wild plant response rating (0-100): 90
[21]; [30]
  Oat, Wild plant response rating (0 to 100 scale): 90
[22]; [29]
  Wheat plant response rating (0-100): 90
[22]; [30]
  Wheat plant response rating (0 to 100 scale): 90
[23]; [29]
  Barnyardgrass plant response rating (0-100): 100
[23]; [30]
  Barnyardgrass plant response rating (0 to 100 scale): 100
[24]; [29]
  Galium plant response rating (0-100): 80
[24]; [30]
  Galium plant response rating (0 to 100 scale): 80
[25]; [29]
  Blackgrass plant response rating (0-100): 70
[25]; [30]
  Blackgrass plant response rating (0 to 100 scale): 80
[26]; [29]
  Amaranth, Palmer plant response rating (0-100): 70
[26]; [30]
  Amaranth, Palmer / Pigweed, Palmer plant response rating (0 to 100 scale): 90
[27]; [29]
  Ryegrass, Italian plant response rating (0-100): 90
[27]; [30]
  Ryegrass, Italian plant response rating (0 to 100 scale): 90
[28]; [29]
  Soybean plant response rating (0-100): 70
[28]; [30]
  Soybean plant response rating (0 to 100 scale): 70
